# Assay results reported in patent US20230233584A1, “EXTENDED RELEASE 5-HT RECEPTOR AGONISTS FOR NEUROLOGICAL CONDITIONS” (Diamond Therapeutics Inc., priority 2020, published 2023).
# Where two headings read alike, the source gives them in different places.
# What was measured:
# [1] = Psilocybin and psilocin plasma pharmacokinetics after s.c. psilocybin; format: in vivo, rats; conditions: for Cmax / concentration at 0.25 h / concentration at 0.5 h / concentration at 0.75 h / concentration at 1 h / concentration at 2 h / concentration at 4 h / concentration at 6 h / Tmax / AUC(0-inf) / AUC(0-t) / half-life / MRT inf: rat, rats; for Cmax / concentration at 0.25 h / concentration at 0.5 h / concentration at 0.75 h / concentration at 1 h / concentration at 2 h / concentration at 4 h / concentration at 6 h: plasma; for AUC(0-inf): read-out: AUC0-inf, Mean; for AUC(0-t): read-out: AUC0-tlast, Mean; for half-life: read-out: Apparent t1/2, Mean (converted); for MRT inf: read-out: MRT0-inf, Mean
# Description: Psilocybin doses of 0.05, 0.1, 1, 10 mg/kg were used to evaluate psilocybin and psilocin PK in rats. For the doses of psilocybin that positively effect behaviors in the low performers in the PR and 5CSRTT, e.g., 0.05-0.1 mg/kg, the corresponding Cm. of psilocin was ˜7±2 ng/ml at 30 minutes for 0.05 mg/kg, and at a dose of 0.1 mg/kg, the Cm. of psilocin was determined to be ˜12±3 ng/ml at 30 minutes (FIG. 5).
# Details of the plasma concentration studies are shown in Tables 1-8 (psilocybin) and 9-16 (psilocin). Values in italics are below the lower level of quantitation (BLQ, <1 ng/mL) but were included in calculations. Values in bold and underlined are considered to be outliers and were omitted from calculations. Measured dosing solution concentrations were 0.0460, 0.0967, 0.948 and 9.65 mg/mL for 0.05, 0.1, 1 and 10 […].
# [2] = Minipump infusion of psilocybin over 12 days: plasma/blood exposure; format: in vivo, rats
# Description: A dose of psilocybin, which is free from perceptual and behavioral side effects, was dosed in rats (N=24) continuously over a period of 12 days using an Alzet minipump implanted in rats of approximately 380-390 g body weight. The pump was primed to deliver psilocybin at 5 mg/kg/day pump concentration. The target plasma concentration was 10 ng/ml psilocin with actual plasma concentration 9.3+1.3 ng/ml over the 12 day study period.
# Blood was collected from rats on days 4, 8 and 12 to measure levels of psilocybin and psilocin in Group B rats. Blood was collected via saphenous bleed at a standard timepoint which will not interfere with 5-choice testing. Psilocin blood levels were in the range of 8-10 ng/ml over days 4-12, while psilocybin blood levels were in the range of 2-5 ng/ml over days 4-12 (FIG. 7A), corresponding to 10 ng/mL psilocin. […] The present observations recorded for psilocybin/psilocin are occurring at exposure levels of psilocin ˜10 ng/ml (e.g., FIG. 5), likely resulting in a low level of CNS 5-HT2A receptor occupancy, and which is insufficient to elicit cardinal signs of 5-HT2A receptor activation such as WDS/BMC in rats (e.g., FIG. 1B).
# [3] = subcutaneous, after psilocybin 0.05 mg/kg s.c.
# [4] = subcutaneous, after psilocybin 0.1 mg/kg s.c.
# [5] = subcutaneous, after psilocybin 1 mg/kg s.c.
# [6] = subcutaneous, after psilocybin 10 mg/kg s.c.
# [7] = sc, psilocin in plasma after psilocybin 0.05 mg/kg s.c.
# [8] = sc, psilocin in plasma after psilocybin 0.1 mg/kg s.c.
# [9] = sc, psilocin in plasma after psilocybin 1 mg/kg s.c.
# [10] = sc, psilocin in plasma after psilocybin 10 mg/kg s.c.
compound,measurement,setting,value
"CN(C)CCc1c[nH]c2cccc(O)c12 [psilocin, 4-hydroxy-N,N-dimethyltryptamine]",Plasma [psilocin],"[1]; Regimen 1, 0.05-0.1 mg/kg acute, increase in breakpoint under PR schedule (low performer subgroup)",~5 to 12 ng/mL
same,Plasma [psilocin],"[1]; Regimen 2, 0.05-0.1 mg/kg acute, improvement in attention and response speed in 5-choice test (low performer subgroup)",~5 to 12 ng/mL
same,Plasma [psilocin],"[1]; Regimen 3, 0.05-0.1 mg/kg acute, increase in PREM/PSV response in 10 s ITI 5-choice test (low impulsive subgroup)",~5 to 12 ng/mL
same,Plasma [psilocin],"[1]; Regimen 5, ≥0.3 mg/kg acute, induction of overt 5-HT2A behaviors of WDS/BMC",≥25 ng/mL
same,Cmax,"[1]; sc, 0.05 mg/kg, psilocin in plasma after psilocybin 0.05 mg/kg s.c., read-out: Cmax, Mean",7.14 ng/mL
same,Cmax,"[1]; sc, 0.05 mg/kg, psilocybin 0.05 mg/kg, after 30 mins, read-out: Cmax psilocin",~6 ng/mL
same,Cmax,"[1]; sc, 0.1 mg/kg, psilocin in plasma after psilocybin 0.1 mg/kg s.c., read-out: Cmax, Mean",11.7 ng/mL
same,Cmax,"[1]; sc, 1 mg/kg, psilocin in plasma after psilocybin 1 mg/kg s.c., read-out: Cmax, Mean",83.3 ng/mL
same,Cmax,"[1]; sc, 10 mg/kg, psilocin in plasma after psilocybin 10 mg/kg s.c., read-out: Cmax, Mean",1110 ng/mL
same,Cmax,"[1]; subcutaneous, 0.05 mg/kg, psilocybin 0.05 mg/kg, after 30 mins, read-out: Cmax psilocin",~7 ng/mL
same,Cmax,"[1]; subcutaneous, 0.1 mg/kg, psilocybin 0.1 mg/kg, after 30 mins, read-out: Cmax psilocin",~12 ng/mL
same,Cmax,"[1]; subcutaneous, 1 mg/kg, psilocybin 1 mg/kg, after 30 mins, read-out: Cmax psilocin",~83 ng/mL
same,Cmax,"[1]; subcutaneous, 10 mg/kg, psilocybin 10 mg/kg, after 30 mins, read-out: Cmax psilocin",~1110 ng/mL
same,concentration at 0.25 h,[1]; [3],3.76 ng/mL
same,concentration at 0.5 h,[1]; [3],5.68 ng/mL
same,concentration at 0.75 h,[1]; [3],3.11 ng/mL
same,concentration at 1 h,[1]; [3],5.91 ng/mL
same,concentration at 2 h,[1]; [3],2.23 ng/mL
same,concentration at 4 h,[1]; [3],0.49 ng/mL
same,concentration at 6 h,[1]; [3],0.136 ng/mL
same,concentration at 0.25 h,[1]; [4],9.35 ng/mL
same,concentration at 0.5 h,[1]; [4],12.3 ng/mL
same,concentration at 0.75 h,[1]; [4],7.73 ng/mL
same,concentration at 1 h,[1]; [4],5.7 ng/mL
same,concentration at 2 h,[1]; [4],2.78 ng/mL
same,concentration at 4 h,[1]; [4],0.535 ng/mL
same,concentration at 6 h,[1]; [4],0.215 ng/mL
same,concentration at 0.25 h,[1]; [5],74.5 ng/mL
same,concentration at 0.5 h,[1]; [5],76.6 ng/mL
same,concentration at 0.75 h,[1]; [5],70.3 ng/mL
same,concentration at 1 h,[1]; [5],69.9 ng/mL
same,concentration at 2 h,[1]; [5],29.7 ng/mL
same,concentration at 4 h,[1]; [5],5.5 ng/mL
same,concentration at 6 h,[1]; [5],1.34 ng/mL
same,concentration at 0.25 h,[1]; [6],704 ng/mL
same,concentration at 0.5 h,[1]; [6],898 ng/mL
same,concentration at 0.75 h,[1]; [6],1080 ng/mL
same,concentration at 1 h,[1]; [6],1070 ng/mL
same,concentration at 2 h,[1]; [6],713 ng/mL
same,concentration at 4 h,[1]; [6],269 ng/mL
same,concentration at 6 h,[1]; [6],132 ng/mL
same,Tmax,[1]; [7],36 min
same,AUC(0-inf),[1]; [7],10.3 ng·h/mL
same,AUC(0-t),[1]; [7],10.1 ng·h/mL
same,half-life,[1]; [7],60 min
same,MRT inf,[1]; [7],104 min
same,Tmax,[1]; [8],32.2 min
same,AUC(0-inf),[1]; [8],15.7 ng·h/mL
same,AUC(0-t),[1]; [8],12.5 ng·h/mL
same,half-life,[1]; [8],55.1 min
same,MRT inf,[1]; [8],85.2 min
same,Tmax,[1]; [9],34.3 min
same,AUC(0-inf),[1]; [9],143 ng·h/mL
same,AUC(0-t),[1]; [9],117 ng·h/mL
same,half-life,[1]; [9],52.7 min
same,MRT inf,[1]; [9],91.8 min
same,Tmax,[1]; [10],42.8 min
same,AUC(0-inf),[1]; [10],3380 ng·h/mL
same,AUC(0-t),[1]; [10],2280 ng·h/mL
same,half-life,[1]; [10],99 min
same,MRT inf,[1]; [10],160 min
same,Plasma [psilocin],"[2]; Regimen 4, mini-pump chronic, improvement in attention in 10 s ITI 5-choice test",~10 ng/mL
same,actual plasma concentration of psilocin,"[2]; psilocybin minipump 5 mg/kg/day, over the 12 day study period, rats",9.3 ± 1.3 ng/mL
same,Psilocin blood levels,"[2]; psilocybin minipump, days 4-12, rats",8 to 10 ng/mL
